Like-named read-outs stand apart in the source and are kept apart here.
Columns and labels:
[1] = system: Bovine Viral Diarrhea Virus (BVDV); assay: specificity: activity against BVDV; type: cell-based
Protocol: (§1) Select compounds were also tested for more broad spectrum activity against other members of the Flaviviridae family including Modoc, which is a murine flavivirus, as well as Bovine Viral Diarrhea Virus (BVDV), which is a Pestivirus. Since dengue virus is able to replicate in multiple cell lines and to ensure that the activity seen in vero cells is consistent, select compounds were also tested for their effective concentration in a viral yield assay against dengue-2 in C6/36 mosquito cells.

[2] = system: Dengue-2 (Strain New Guinea C); assay: viral yield assay against Dengue-2 in Vero cells; type: cell-based; settings: Dengue virus, Vero cells; for EC90: read-out: EC90 Yield Den-2
Method in brief: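 Vero cells infected with dengue-2 at MOI 0.1 were treated with compound (DMSO control) at 37° C., harvested 48 h post infection and titered on Vero cells.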

[3] = system: Den-4; assay: viral yield assay against Den-4; type: cell-based; settings: Dengue virus
[4] = system: Modoc; assay: specificity: activity against Modoc; type: cell-based, murine flavivirus; settings: Orthoflavivirus, in Mus musculus
Protocol: as §1

[5] = system: Den-3; assay: viral yield assay against Den-3; type: cell-based; settings: Dengue virus
[6] = Bovine viral diarrhea virus isolates and strains; read-out: Specificity BVDV
[7] = MOI 0.1, harvested 48 hours post infection, read-out: Activity (anti-dengue 2 viral activity, EC50)
[8] = viral yield assay, read-out: EC50 Yield Den-2
[9] = Bovine viral diarrhea virus isolates and strains, read-out: Specificity BVDV

Structure (SMILES) | EC50 [2, 7] [µM] | EC50 [2, 8] [µM] | EC90 ([2]; viral yield assay) [µM] | further results
CC(C)N(C)S(=O)(=O)c1ccc(NC(=O)Cn2cnc3cc(F)ccc3c2=O)cc1 [Compound 7, 2-(7-Fluoro-4-oxo-4H-quinazolin-3-yl)-N-[4-(isopropyl-methyl-sulfamoyl)-phenyl]-acetamide] | 1 to 10 | 4.6 | > 50 | EC50 [1, 6]: > 50 µM
CCN(CC)S(=O)(=O)c1ccc(OC)c(NC(=O)Cc2ccccc2)c1 [Compound 16, N-(5-Diethylsulfamoyl-2-methoxy-phenyl)-2-phenyl-acetamide] | 1 to 10 | 5.8 | 10.3 | EC50 [3]: 2.1 µM; EC90 [3]: 6.4 µM; EC50 [4]: 3.6 µM; EC50 [1, 9]: > 50 µM
CCN(CC)S(=O)(=O)c1ccc(NC(=O)Cn2[nH]c(=O)c3ccccc3c2=O)cc1 [Compound 8, N-(4-Diethylsulfamoyl-phenyl)-2-(1,4-dioxo-3,4-dihydro-1H-phthalazin-2-yl)-acetamide] | 1 to 10 | 2.8 | 25.6 | EC50 [1, 6]: > 50 µM
CC(C)N(C)S(=O)(=O)c1ccc(NC(=O)Cn2cnc3ccc(Cl)cc3c2=O)cc1 [Compound 6, 2-(6-Chloro-4-oxo-4H-quinazolin-3-yl)-N-[4-(isopropyl-methyl-sulfamoyl)-phenyl]-acetamide] | 1 to 10 | 1.8 | 43.2 | EC50 [1, 6]: 64 µM
CCN(CC)S(=O)(=O)c1ccc(NC(=O)Cn2cnc3c2c(=O)n(C)c(=O)n3C)cc1 [Compound 4, N-(4-Diethylsulfamoyl-phenyl)-2-(1,3-dimethyl-2,6-dioxo-1,2,3,6-tetrahydro-purin-7-yl)-acetamide] | 1 to 10 | 7.8 | 8.9 | EC50 [3]: 4.3 µM; EC90 [3]: 22.7 µM; EC50 [5]: 13.5 µM; EC90 [5]: 22.6 µM; EC50 [4]: > 25 µM; EC50 [1, 6]: > 50 µM
CCN(CC)S(=O)(=O)c1ccc(OC)c(NC(=O)CC(C)C)c1 [Compound 15, N-(5-Diethylsulfamoyl-2-methoxy-phenyl)-3-methyl-butyramide] | 1 to 10 | 2.4 | > 100 | EC50 [3]: 1.2 µM; EC90 [3]: 37.2 µM; EC50 [4]: 10.1 µM; EC50 [1, 9]: > 50 µM
CCCCC(=O)Nc1cc(S(=O)(=O)N(CC)CC)ccc1OC [Compound 21, Pentanoic acid (5-diethylsulfamoyl-2-methoxy-phenyl)-amide] | 10 to 25 | 14.2 | 24.1 | EC50 [3]: 8.2 µM; EC90 [3]: 12 µM; EC50 [4]: 6 µM; EC50 [1, 9]: > 50 µM
CCN(CC)S(=O)(=O)c1ccc(NC(=O)CN2C(=O)c3cccc4cccc(c34)C2=O)cc1 [Compound 9, N-(4-Diethylsulfamoyl-phenyl)-2-(1,3-dioxo-1H,3H-benzo[de]isoquinolin-2-yl)-acetamide] | 1 to 10 | 1.3 | 7.3 | EC50 [1, 6]: > 50 µM
COc1ccc(S(=O)(=O)N(C)C)cc1NC(=O)COC(=O)Cn1cnc2ccccc2c1=O [Compound 125, (4-Oxo-4H-quinazolin-3-yl)-acetic acid (5-dimethylsulfamoyl-2-methoxy-phenylcarbamoyl)-methyl ester] | > 25 | – | – | –
CCN(CC)S(=O)(=O)c1ccc(C(C)NC(=O)CCn2nnc3ccccc3c2=O)cc1 (stereo not shown) [Compound 68, N-[1-(4-Diethylsulfamoyl-phenyl)-ethyl]-3-(4-oxo-4H-benzo[d][1,2,3]triazin-3-yl)-propionamide] | > 25 | – | – | –
CN(C1CCCCC1)S(=O)(=O)c1ccc(NC(=O)Cn2cnc3ccccc3c2=O)cc1 [Compound 49, N-[4-(Cyclohexyl-methyl-sulfamoyl)-phenyl]-2-(4-oxo-4H-quinazolin-3-yl)-acetamide] | > 25 | – | – | –
CN(C)S(=O)(=O)c1ccc(NC(=O)Cn2cnc3ccccc3c2=O)cc1 [Compound 50, N-(4-Dimethylsulfamoyl-phenyl)-2-(4-oxo-4H-quinazolin-3-yl)-acetamide] | > 25 | – | – | –
CON(C)S(=O)(=O)c1ccc(NC(=O)Cn2nnc3ccccc3c2=O)cc1 [Compound 84, N-[4-(Methoxy-methyl-sulfamoyl)-phenyl]-2-(4-oxo-4H-benzo[d][1,2,3]triazin-3-yl)-acetamide] | > 25 | – | – | –
CN(C)S(=O)(=O)c1cccc(NC(=O)Cn2cnc3ccccc3c2=O)c1 [Compound 107, N-(3-Dimethylsulfamoyl-phenyl)-2-(4-oxo-4H-quinazolin-3-yl)-acetamide] | > 25 | – | – | –
CCOc1ccc(S(=O)(=O)N(CC)CC)cc1NC(=O)Cn1cnc2ccccc2c1=O [Compound 92, N-(5-Diethylsulfamoyl-2-ethoxy-phenyl)-2-(4-oxo-4H-quinazolin-3-yl)-acetamide] | > 25 | – | – | –
O=C(Cn1cnc2ccccc2c1=O)Nc1ccc(S(=O)(=O)N2CCCCCC2)cc1 [Compound 51, N-[4-(Azepane-1-sulfonyl)-phenyl]-2-(4-oxo-4H-quinazolin-3-yl)-acetamide] | > 25 | – | – | –
CCN(CC)S(=O)(=O)c1ccc(NC(=O)Cn2cnc3sc(-c4ccccc4)cc3c2=O)cc1 [Compound 56, N-(4-Diethylsulfamoyl-phenyl)-2-(4-oxo-6-phenyl-4H-thieno[2,3-d]pyrimidin-3-yl)-acetamide] | > 25 | – | – | –
CCN(CC)S(=O)(=O)c1cccc(NC(=O)Cn2cnc3ccccc3c2=O)c1 [Compound 65, N-(3-Diethylsulfamoyl-phenyl)-2-(4-oxo-4H-quinazolin-3-yl)-acetamide] | > 25 | – | – | –
NS(=O)(=O)c1ccc(CCNC(=O)Cn2c(=O)cnc3ccccc32)cc1 [Compound 130, 2-(2-Oxo-2H-quinoxalin-1-yl)-N-[2-(4-sulfamoyl-phenyl)-ethyl]-acetamide] | > 25 | – | – | –
CC(C)N(C)S(=O)(=O)c1ccc(NC(=O)Cn2nnc3ccccc3c2=O)cc1 [Compound 86, N-[4-(Isopropyl-methyl-sulfamoyl)-phenyl]-2-(4-oxo-4H-benzo[d][1,2,3]triazin-3-yl)-acetamide] | > 25 | – | – | –
CCN(CC)S(=O)(=O)c1ccc(NC(=O)CSc2nc3ccccc3c(=O)n2C)cc1 [Compound 71, N-(4-Diethylsulfamoyl-phenyl)-2-(3-methyl-4-oxo-3,4-dihydro-quinazolin-2-ylsulfanyl)-acetamide] | > 25 | – | – | –
CN(Cc1ccccc1)S(=O)(=O)c1ccc(NC(=O)CCn2cnc3ccccc3c2=O)cc1 [Compound 98, N-[4-(Benzyl-methyl-sulfamoyl)-phenyl]-3-(4-oxo-4H-quinazolin-3-yl)-propionamide] | > 25 | – | – | –
CCN(CC)S(=O)(=O)c1ccc(NC(=O)CCn2nnc3ccccc3c2=O)cc1 [Compound 77, N-(4-Diethylsulfamoyl-phenyl)-3-(4-oxo-4H-benzo[d][1,2,3]triazin-3-yl)-propionamide] | > 25 | – | – | –
O=C(Cn1cnc2ccccc2c1=O)Nc1ccc(S(=O)(=O)Nc2nccs2)cc1 [Compound 32, 2-(4-Oxo-4H-quinazolin-3-yl)-N-[4-(thiazol-2-ylsulfamoyl)-phenyl]-acetamide] | > 25 | – | – | –
CCN(CC)S(=O)(=O)c1ccc(NC(=O)Cn2cnc3ccsc3c2=O)cc1 [Compound 22, N-(4-Diethylsulfamoyl-phenyl)-2-(4-oxo-4H-thieno[3,2-d]pyrimidin-3-yl)-acetamide] | 10 to 25 | – | – | –
CCN(CC)S(=O)(=O)c1ccc(NC(=O)CNC(=O)c2ccc(S(=O)(=O)NC(C)C)cc2)cc1 [Compound 73, N-[(4-Diethylsulfamoyl-phenylcarbamoyl)-methyl]-4-isopropylsulfamoyl-benzamide] | > 25 | – | – | –

From US9353051B2, “Antiviral drugs for treatment or prevention of dengue infection” (Siga Technologies Inc., priority 2007, dated 2016)
